The text below walks through data of ChEMBL document CHEMBL3600294, “Synthesis, molecular docking and biological evaluation of 3-arylfuran-2(5H)-ones as anti-gastric ulcer agent” (Bioorg Med Chem, 2015).

Series [1] can be described thus: Inhibition of Staphylococcus aureus TyrRS expressed in Escherichia coli using [ring-3,5-3H]-tyrosine preincubated for 10 mins assessed as aminoacylation by liquid scintillation counting.
Another series deals with Helicobacter pylori. As to the kind of experiment: Antibacterial activity against Helicobacter pylori ATCC 43504 after 24 hrs by microdilution broth method. The note with it: ATCC 43504, 24 h. Format: functional.
Series [2] concerns the target Urease subunit alpha/Urease subunit beta (Helicobacter pylori (strain ATCC 700392 / 26695) (Campylobacterpylori), UniProt P69996). As to the kind of experiment: Inhibition of Helicobacter pylori urease assessed as ammonia production preincubated for 1.5 hrs by indophenol method.
Series [3] can be described thus: Antioxidant activity assessed as DPPH radical scavenging activity incubated for 30 mins.

The structures appear in SMILES notation. Converted amounts (≈) assume the structure as drawn.

Sequence of Urease subunit alpha/Urease subunit beta (P69996 whole entry): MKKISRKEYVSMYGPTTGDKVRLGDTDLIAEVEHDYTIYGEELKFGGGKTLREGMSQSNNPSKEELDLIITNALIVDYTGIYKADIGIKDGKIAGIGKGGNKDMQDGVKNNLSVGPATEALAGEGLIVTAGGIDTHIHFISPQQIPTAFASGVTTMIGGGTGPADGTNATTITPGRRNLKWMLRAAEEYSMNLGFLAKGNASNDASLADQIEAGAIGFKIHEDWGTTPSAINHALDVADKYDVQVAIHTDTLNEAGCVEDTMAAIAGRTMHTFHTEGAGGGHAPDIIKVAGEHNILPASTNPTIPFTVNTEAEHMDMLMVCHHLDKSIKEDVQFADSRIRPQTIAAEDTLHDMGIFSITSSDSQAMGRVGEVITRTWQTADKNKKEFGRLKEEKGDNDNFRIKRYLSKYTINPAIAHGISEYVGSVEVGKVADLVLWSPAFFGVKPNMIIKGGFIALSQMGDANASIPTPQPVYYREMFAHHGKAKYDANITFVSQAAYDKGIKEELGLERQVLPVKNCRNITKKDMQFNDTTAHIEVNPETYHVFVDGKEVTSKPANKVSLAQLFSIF
Sequence of Urease subunit alpha/Urease subunit beta (P14916 whole entry, further chain): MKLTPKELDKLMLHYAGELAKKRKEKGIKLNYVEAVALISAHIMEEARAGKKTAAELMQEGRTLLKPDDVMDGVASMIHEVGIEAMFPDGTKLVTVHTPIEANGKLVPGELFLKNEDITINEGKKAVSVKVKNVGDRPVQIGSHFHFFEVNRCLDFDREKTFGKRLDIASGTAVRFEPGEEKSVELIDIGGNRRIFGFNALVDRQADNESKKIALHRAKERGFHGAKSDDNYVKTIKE

For `O=C1OCC(OCCN2CCOCC2)=C1c1ccc(O)cc1`, the IC50 in series [1] stood at 0.1 µM.

`O=C1OCC(O)=C1c1ccccc1` registered an MIC50 against Helicobacter pylori of 4.7 µg/mL (≈ 26.7 µM). Also, the figures for the concentration for half-maximal inhibition (IC50) in series [2], in series [1] and in series [3] (DPPH radical solution) were 89 µM, 5.6 µM and 13.5 µM, respectively.

On to `O=C1OCC(O)=C1c1ccccc1F`, for which the MIC50 in the series on Helicobacter pylori was determined as 2.7 µg/mL (≈ 13.9 µM). The IC50 in series [2] is 75 µM; in series [1], 1.9 µM; in series [3] (DPPH radical solution) it was > 100 µM.

In the case of `O=C1OCC(O)=C1c1ccccc1Cl`, in the series on Helicobacter pylori, the MIC50 turned out to be 36.7 µg/mL (≈ 174 µM). In addition, the IC50 is 68 µM in series [2] and > 100 µM in series [3] (DPPH radical solution).

In turn, `Cc1ccccc1C1=C(O)COC1=O` came in with an MIC50 in the series on Helicobacter pylori of 1.5 µg/mL (≈ 7.89 µM). For the same compound, the concentration for half-maximal inhibition (IC50) in series [2] is 65 µM; in series [1], 0.6 µM; in series [3] (DPPH radical solution) it was 45.6 µM.

In the series on Helicobacter pylori, `O=C1OCC(O)=C1c1ccccc1OCc1ccccc1` came in with an MIC50 of 13.8 µg/mL (≈ 48.9 µM). The results for the IC50 in series [2], in series [1] and in series [3] (DPPH radical solution) were 50 µM, 2.5 µM and > 100 µM, respectively.

Turning to `O=C1OCC(O)=C1c1cccc(F)c1`, the MIC50 with Helicobacter pylori is > 100 µg/mL. Moreover, the values for the IC50 in series [2], in series [1] and in series [3] (DPPH radical solution) were 62 µM, 27.8 µM and 23.5 µM, respectively.

In the series on Helicobacter pylori, `O=C1OCC(O)=C1c1cccc(Cl)c1` registered an MIC50 of 36.7 µg/mL (≈ 174 µM). The IC50 in series [2] turned out to be 45.3 µM; in series [1], 15.4 µM; in series [3] (DPPH radical solution), 16.5 µM.

Regarding `O=C1OCC(O)=C1c1cccc(Br)c1`, in the series on Helicobacter pylori, the MIC50 was 24.5 µg/mL (≈ 96.1 µM). Moreover, the concentration for half-maximal inhibition (IC50) in series [2] turned out to be 81.8 µM; in series [1], 13.1 µM; in series [3] (DPPH radical solution), 11.2 µM.

The compound `Cc1cccc(C2=C(O)COC2=O)c1` gave an MIC50 with Helicobacter pylori of 2.6 µg/mL (≈ 13.7 µM). In addition, the IC50 in series [2] turned out to be 31.1 µM; in series [1], 1.1 µM; in series [3] (DPPH radical solution), 8.2 µM.

`O=C1OCC(O)=C1c1cccc(C(F)(F)F)c1`: the MIC50 in the series with Helicobacter pylori came to 28.2 µg/mL (≈ 115 µM). Further, the results for the IC50 in series [2], in series [1] and in series [3] (DPPH radical solution) were 64.4 µM, 17.5 µM and 110 µM, respectively.

Compound `O=C1OCC(O)=C1c1cccc(OCc2ccccc2)c1` displayed an MIC50 in the series on Helicobacter pylori of 31.7 µg/mL (≈ 112 µM). Also, the IC50 in series [2] was 77.5 µM; in series [3] (DPPH radical solution) it was 31.5 µM.

In the case of `O=C1OCC(O)=C1c1ccc(F)cc1`, the MIC50 against Helicobacter pylori is 27.7 µg/mL (≈ 143 µM). Moreover, the IC50 in series [2] is 40.6 µM; in series [3] (DPPH radical solution), > 100 µM.

In the series on Helicobacter pylori, `O=C1OCC(O)=C1c1ccc(Cl)cc1` registered an MIC50 of 49.3 µg/mL (≈ 234 µM). The IC50 in series [2] was > 100 µM; in series [3] (DPPH radical solution), 18.5 µM.

For `O=C1OCC(O)=C1c1ccc(Br)cc1`, the MIC50 against Helicobacter pylori was determined as 61.3 µg/mL (≈ 240 µM). Moreover, the IC50 in series [2] was > 100 µM; in series [3] (DPPH radical solution), 16.8 µM.

`Cc1ccc(C2=C(O)COC2=O)cc1` showed an MIC50 in the series on Helicobacter pylori of 15.2 µg/mL (≈ 79.9 µM). The IC50 was > 100 µM in series [2], 8.6 µM in series [1] and 12.3 µM in series [3] (DPPH radical solution).

`O=C1OCC(O)=C1c1ccc(OCc2ccccc2)cc1`: the MIC50 against Helicobacter pylori amounted to 52.1 µg/mL (≈ 185 µM). Also, the IC50 is 10.5 µM in series [2], 30 µM in series [1] and 34 µM in series [3] (DPPH radical solution).

For the compound `O=C1OCC(O)=C1c1ccc(Cl)c(Cl)c1`, the MIC50 in the series on Helicobacter pylori is > 100 µg/mL. Moreover, the results for the IC50 in series [2] and in series [3] (DPPH radical solution) were > 100 µM and 28.7 µM, respectively.

`COc1ccc(C2=C(O)COC2=O)cc1OC` yielded an MIC50 in the series with Helicobacter pylori of 46.2 µg/mL (≈ 196 µM). Also, the IC50 in series [2] turned out to be 36.5 µM; in series [3] (DPPH radical solution), 20.4 µM.

In turn, `CCOc1ccc(C2=C(O)COC2=O)cc1OCC` registered an MIC50 with Helicobacter pylori of 72.5 µg/mL (≈ 274 µM). Besides, the results for the IC50 in series [2] and in series [3] (DPPH radical solution) were 91.7 µM and 23.4 µM, respectively.

`O=C1OCC(O)=C1c1ccc(Cl)cc1Cl`: the MIC50 in the series on Helicobacter pylori was > 100 µg/mL. The half-inhibitory concentration (IC50) in series [2] and in series [3] (DPPH radical solution) was > 100 µM in each case.

`CC1(C)S[C@@H]2[C@H](NC(=O)[C@H](N)c3ccc(O)cc3)C(=O)N2[C@H]1C(=O)O` [AMOXICILLIN] showed an MIC50 with Helicobacter pylori of 0.8 µg/mL (≈ 2.19 µM).

For `O=C1O[C@H]([C@@H](O)CO)C(O)=C1O` [ASCORBIC ACID], the IC50 in series [3] was 12.1 µM.
